{"source": "PubChem BioAssay AID256", "about": "(DTP/NCI, 2004)", "system": "CD2F1 mice, L1210 leukemia ip, survival T/C", "experiment": "NCI In Vivo Anticancer Drug Screen. Data for tumor model L1210 Leukemia (intraperitoneal) in CD2F1 (CDF1) mice", "conditions": "higher = longer survival", "in_short": "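Tumor-bearing mice (transplanted tumor) were split into treated and vehicle control groups, and the measured endpoint of each treated group was divided by that of its vehicle controls.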", "key": {"[1]": {"conditions": "endpoint: mean survival time, dose: 25.0 mg/kg/injection, schedule: Q01DX009 (ip), vehicle: saline with Tween-80"}, "[2]": {"conditions": "endpoint: mean survival time, dose: 50.0 mg/kg/injection, schedule: Q01DX009 (ip), vehicle: saline with Tween-80"}, "[3]": {"conditions": "endpoint: mean survival time, dose: 100.0 mg/kg/injection, schedule: Q01DX009 (ip), vehicle: saline with Tween-80"}, "[4]": {"conditions": "endpoint: mean survival time, dose: 200.0 mg/kg/injection, schedule: Q01DX009 (ip), vehicle: saline with Tween-80"}, "[5]": {"conditions": "endpoint: mean survival time, dose: 100.0 mg/kg/injection, schedule: Q04DX003 (ip), vehicle: saline with Tween-80"}, "[6]": {"conditions": "endpoint: mean survival time, dose: 200.0 mg/kg/injection, schedule: Q04DX003 (ip), vehicle: saline with Tween-80"}, "[7]": {"conditions": "endpoint: mean survival time, dose: 400.0 mg/kg/injection, schedule: Q01DX009 (ip), vehicle: saline with Tween-80"}, "[8]": {"conditions": "endpoint: mean survival time, dose: 400.0 mg/kg/injection, schedule: Q04DX003 (ip), vehicle: saline with Tween-80"}}, "note": "Values joined by “and” are separate entries in the source; they are usually repeats but may differ in a detail not shown here. Equal entries are not always repeated. Inconclusive results and toxic doses are left out. Non-standard residues stand in square brackets, D forms with d. Residues, ends and D or L forms follow the SMILES beside them. ξ: configuration not given here. *: point of attachment. ξV = CC(C)C(N)C(=O)O; ClAc = O=C(CCl)*"}
{"molecule": "CCN(CC)CC(=O)O[C@]1(CC)C(=O)OCc2c1cc1n(c2=O)Cc2cc3ccccc3nc2-1", "values": [{"measurement": "T/C", "setting": "endpoint: median survival time, dose: 1.0 mg/kg/injection, schedule: Q01DX009 (ip), vehicle: water", "value": "124 % of control and 109 % of control"}, {"measurement": "T/C", "setting": "endpoint: median survival time, dose: 3.75 mg/kg/injection, schedule: Q04DX002 (ip), vehicle: water", "value": "114 % of control and 109 % of control"}, {"measurement": "T/C", "setting": "endpoint: median survival time, dose: 3.75 mg/kg/injection, schedule: Q04HX004 (iv), vehicle: other", "value": "150 % of control"}, {"measurement": "T/C", "setting": "endpoint: median survival time, dose: 4.0 mg/kg/injection, schedule: Q01DX009 (ip), vehicle: water", "value": "154 % of control and 163 % of control"}, {"measurement": "T/C", "setting": "endpoint: median survival time, dose: 7.5 mg/kg/injection, schedule: Q04DX002 (ip), vehicle: water", "value": "124 % of control"}, {"measurement": "T/C", "setting": "endpoint: median survival time, dose: 7.5 mg/kg/injection, schedule: Q04HX004 (iv), vehicle: dextrose", "value": "183 % of control"}, {"measurement": "T/C", "setting": "endpoint: median survival time, dose: 7.5 mg/kg/injection, schedule: Q04HX004 (iv), vehicle: other", "value": "175 % of control"}, {"measurement": "T/C", "setting": "endpoint: median survival time, dose: 8.0 mg/kg/injection, schedule: Q01DX009 (ip), vehicle: water", "value": "113 % of control"}, {"measurement": "T/C", "setting": "endpoint: median survival time, dose: 15.0 mg/kg/injection, schedule: Q04DX002 (ip), vehicle: water", "value": "157 % of control"}, {"measurement": "T/C", "setting": "endpoint: median survival time, dose: 15.0 mg/kg/injection, schedule: Q04HX004 (iv), vehicle: dextrose", "value": "218 % of control"}, {"measurement": "T/C", "setting": "endpoint: median survival time, dose: 15.0 mg/kg/injection, schedule: Q04HX004 (iv), vehicle: other", "value": "203 % of control"}, {"measurement": "T/C", "setting": "endpoint: median survival time, dose: 30.0 mg/kg/injection, schedule: Q04DX002 (ip), vehicle: water", "value": "223 % of control and 256 % of control"}, {"measurement": "T/C", "setting": "endpoint: median survival time, dose: 30.0 mg/kg/injection, schedule: Q04HX004 (iv), vehicle: dextrose", "value": "204 % of control"}, {"measurement": "T/C", "setting": "endpoint: median survival time, dose: 30.0 mg/kg/injection, schedule: Q04HX004 (iv), vehicle: other", "value": "268 % of control"}]}
{"molecule": "COc1cc(Cl)ccc1C", "values": [{"measurement": "T/C", "setting": "endpoint: mean survival time, dose: 12.5 mg/kg/injection, schedule: Q01DX009 (ip), vehicle: saline with Tween-80", "value": "97 % of control"}, {"measurement": "T/C", "setting": "[1]", "value": "97 % of control"}, {"measurement": "T/C", "setting": "[2]", "value": "95 % of control"}, {"measurement": "T/C", "setting": "[3]", "value": "100 % of control"}, {"measurement": "T/C", "setting": "[4]", "value": "91 % of control"}]}
{"molecule": "N#CCS(=O)(=O)c1ccccc1", "values": [{"measurement": "T/C", "setting": "endpoint: mean survival time, dose: 12.5 mg/kg/injection, schedule: Q01DX001 (ip), vehicle: saline with Tween-80", "value": "95 % of control"}, {"measurement": "T/C", "setting": "endpoint: mean survival time, dose: 25.0 mg/kg/injection, schedule: Q01DX001 (ip), vehicle: saline with Tween-80", "value": "98 % of control"}, {"measurement": "T/C", "setting": "endpoint: mean survival time, dose: 50.0 mg/kg/injection, schedule: Q01DX001 (ip), vehicle: saline with Tween-80", "value": "96 % of control and 98 % of control"}]}
{"molecule": "CC(=O)Nc1ccc2cc3ccc(NC(C)=O)cc3nc2c1", "values": [{"measurement": "T/C", "setting": "endpoint: mean survival time, dose: 100.0 mg/kg/injection, schedule: Q04DX002 (ip), vehicle: saline", "value": "98 % of control"}, {"measurement": "T/C", "setting": "endpoint: mean survival time, dose: 200.0 mg/kg/injection, schedule: Q04DX002 (ip), vehicle: saline", "value": "98 % of control"}, {"measurement": "T/C", "setting": "endpoint: mean survival time, dose: 400.0 mg/kg/injection, schedule: Q04DX002 (ip), vehicle: saline", "value": "98 % of control"}]}
{"molecule": "CCCCS(=O)C(Cl)CCC", "note": "(configuration not stated)", "values": [{"measurement": "T/C", "setting": "[5]", "value": "97 % of control"}, {"measurement": "T/C", "setting": "[6]", "value": "100 % of control"}]}
{"molecule": "CCC(C)N(C)/N=N/c1nc[nH]c1C(N)=O", "note": "(configuration not stated)", "values": [{"measurement": "T/C", "setting": "[4]", "value": "104 % of control"}]}
{"molecule": "O=c1[nH]cc[nH]1", "values": [{"measurement": "T/C", "setting": "endpoint: mean survival time, dose: 267.0 mg/kg/injection, schedule: Q01DX009 (ip), vehicle: saline", "value": "111 % of control"}]}
{"molecule": "Cc1ccc(S(=O)(=O)N2CCC2)cc1", "values": [{"measurement": "T/C", "setting": "[3]", "value": "98 % of control"}, {"measurement": "T/C", "setting": "[5]", "value": "100 % of control"}, {"measurement": "T/C", "setting": "[4]", "value": "102 % of control"}, {"measurement": "T/C", "setting": "[6]", "value": "100 % of control"}, {"measurement": "T/C", "setting": "[7]", "value": "96 % of control"}, {"measurement": "T/C", "setting": "[8]", "value": "97 % of control"}]}
{"molecule": "CC(C)C(NC(=O)CNC(=O)CCl)C(=O)O", "note": "(configuration not stated) (ClAc-Gly-[ξV]-OH)", "values": [{"measurement": "T/C", "setting": "[1]", "value": "92 % of control"}, {"measurement": "T/C", "setting": "endpoint: mean survival time, dose: 25.0 mg/kg/injection, schedule: Q04DX003 (ip), vehicle: saline with Tween-80", "value": "96 % of control"}, {"measurement": "T/C", "setting": "[2]", "value": "97 % of control"}, {"measurement": "T/C", "setting": "endpoint: mean survival time, dose: 50.0 mg/kg/injection, schedule: Q04DX003 (ip), vehicle: saline with Tween-80", "value": "100 % of control"}, {"measurement": "T/C", "setting": "[3]", "value": "97 % of control"}, {"measurement": "T/C", "setting": "[5]", "value": "100 % of control"}]}
{"molecule": "ClC(Cl)(Cl)C1CCC(Br)C2CCCCC21", "note": "(configuration not stated)", "values": [{"measurement": "T/C", "setting": "[5]", "value": "92 % of control"}, {"measurement": "T/C", "setting": "[6]", "value": "100 % of control"}, {"measurement": "T/C", "setting": "[8]", "value": "96 % of control"}]}
{"molecule": "COC(=O)c1cccc(OC)c1OC", "values": [{"measurement": "T/C", "setting": "[3]", "value": "101 % of control"}, {"measurement": "T/C", "setting": "[5]", "value": "108 % of control"}, {"measurement": "T/C", "setting": "[4]", "value": "96 % of control"}, {"measurement": "T/C", "setting": "[6]", "value": "98 % of control"}, {"measurement": "T/C", "setting": "[7]", "value": "98 % of control"}, {"measurement": "T/C", "setting": "[8]", "value": "100 % of control"}]}
{"molecule": "CC(=O)OC1CCCCCCCCCCC12OCCO2", "note": "(configuration not stated)", "values": [{"measurement": "T/C", "setting": "endpoint: mean survival time, dose: 100.0 mg/kg/injection, schedule: Q04DX002 (ip), vehicle: other", "value": "104 % of control"}, {"measurement": "T/C", "setting": "endpoint: mean survival time, dose: 400.0 mg/kg/injection, schedule: Q04DX002 (ip), vehicle: other", "value": "115 % of control"}]}
